# Experimental data as given in US20250236627A1, “CERTAIN OCTAHYDROFURO[3,4- B]PYRAZINES AS GLP-1 RECEPTOR MODULATORS” (ASTRAZENECA AB, priority 2021, published 2025).
# Key:
# human GLP-1R receptor = molecular target: T1, human GLP-1R receptor (Homo sapiens, UniProt P43220, L260F); experiment: CHOK1 GLP-1R cAMP Assay; type: cell-based; settings: CHO-K1 cell line stably expressing human GLP-1R; HTRF cAMP detection
# T1 construct: expressed in transfected cells; host or cells: CHO-K1 (ATCC CCL-61)
# Description: A cell line stably expressing the human GLP-1R receptor (NM_002062.5, including the naturally-occurring variant Leu260Phe) in a CHO-K1 (ATCC® CCL-61™) was used for assay.
# GLP-1 Receptor mediated agonist activity was determined in a cell based assay measuring cAMP levels in cells using Homogeneous Time-Resolved Fluorescence (HTRF) cAMP detection kit (CisBio catalog #62AM4PEC, cAMP Gs Dynamic range kit). The cAMP detection method is based on a competitive immunoassay, in which cAMP produced by the cells and cAMP labeled with the dye d2 compete for binding to a Europium-Cryptate-labeled anti-cAMP antibody. The specific HTRF signal is inversely proportional to the concentration of cAMP.
# Compounds were added to individual well in 384 well-assay plates (Greiner #784076) using an Echo (LabCyte) dispenser from 10 mM stocks. Varying concentration of compounds were added to wells, and dimethyl sulfoxide was used to normalize each well to a volume of 100 nanoliter. A dose response curve of GLP1(7-36)NH2 (Bachem H-6795) was included in each run. 5 μL of cAMP concentration response standards are applied in specified wells in the assay plates.
# Cryo-preserved cells are thawed and resuspended in assay buffer pre-heated to 37° C. (20 mM 2-[4-(2-hydroxyethyl)piperazin-1-yl]ethanesulfonic acid (HEPES) pH 7.4, lx Hank's Balanced Salt Solution (HBSS, Life Technologies #14065) supplemented with 0.1% (w/v) bovine serum albumin (Sigma, A-7030)). Cells were centrifuged at 250*g for 5 min at room temperature, and resuspend in room tempered assay buffer to a final density of 0.16*10^6 cell/mL, to deliver 800 cells/well. 5 μL of assay buffer with 1 mM 3-isobutyl-1-methylxanthin (IBMX; Sigma cat I-7018) was dispensed per well in assay plates using a multidrop combi (Thermo Scientific) subsequently 5 μL of cell suspension was distributed to relevant wells in the assay using a multidrop dispenser. Assay plates were incubated 20 min at room temperature.
# Detection reagents, Europium-Cryptate-labeled anti-cAMP antibody and cAMP labeled with the dye d2, are diluted in lysis buffer, provided by the manufacturer. 5 μL of each detection reagent is supplemented to each assay well using a multidrop dispenser. Assay plates are incubated in the dark for at least one hour. The HTRF signal is measured using the HTRF module (excitation: 337 nm, emission A: 665 nm and emission B: 620 nm) in Pherastar FSX (BMG Labtech).
# Raw data were converted to pM cAMP using the cAMP standard curve included in each run. Converted data were further analyzed in Genedata Screener (Genedata) and EC50 determinations were made from agonist dose-response curves analyzed with a curve fitting program using a 4-parameter logistic dose response equation (Equation y=A+((B−A)/1+((C/x)^D))) where A is no stimulation, B is full stimulation, C is the EC50 and D is the Hill slope). The percent effect was determined relative to a saturating concentration of a full GLP-1R agonist (GLP1(7-36)NH2 has 100% effect in this assay setup).
# [1] = molecular target: T2, endogenous human glucagon-like peptide 1 receptor (GLP-1R) (Homo sapiens, UniProt P43220); experiment: EndoC cAMP Accumulation Assay; type: cell-based; settings: EndoC-βH1 human pancreatic β cell line; HTRF cAMP assay
# T2 construct: endogenous human glucagon-like peptide 1 receptor (GLP-1R) in a pancreatic insulinoma cell line; host or cells: EndoC-βH1 human pancreatic β cell line
# Excerpt: EndoC cAMP Accumulation Assay
# A HTRF (Homogeneous Time-Resolved Fluorescence) cAMP assay (cAMP Gs dynamic kit; CisoBio Cat #62AM4PEJ) was used to identify agonists of the endogenous human glucagon-like peptide 1 receptor (GLP-1R) in a pancreatic insulinoma cell line (EndoC-βH1). […] EndoC-βH1 cells have detectable GLP-1R mRNA as detected by qPCR^1. […] The EndoC-βH1 cell line is a valid model of human beta cells and applicable for screenings to identify novel drug target candidates (Mol. Metab., 2018, 8, 144-157). CisBio HTRF cAMP kits are based on a competitive immunoassay using cryptate-labelled anti-cAMP antibody and d2-labeled cAMP. The detection kit is intended for the direct quantitative determination of cAMP. The specific signal (i.e. energy transfer) is inversely proportional to the concentration of cAMP in the standard or sample. Test compounds (10 mM in DMSO) were diluted into assay buffer (HBSS (Sigma #H8264) supplemented with 25 mM HEPES (Gibco #15630, pH 7.4), 0.1% BSA (Sigma #A3059) and 0.5 mM IBMX (Sigma #I7018) included fresh on the day of the assay) into 96 well U-bottom plates (Greiner #650201). Diluted compounds were transferred to ECHO source PP plates (Labcyte #P-05525) and dose response curves were dispensed acoustically using ECHO 550 into black shallow-well u-bottom 384-well HTRF Assay Plates (Corning 4514).
# Cryovials of EndoC-H1 (supplied at 1×10e^7 cells/vial) were used directly for screening. The cryovials and were removed from LN2 and thawed rapidly in a 37° C. water bath. The cells were resuspended in assay buffer and centrifuged at 300 g for 5 min. Cells were resuspended in assay buffer at the appropriate concentration, typically at 12e5 cells per mL (3000 cells per well, dependent on cell batch) and 2.5 μL diluted cells were added to all wells of destination plate by Multidrop combi reagent dispenser (Thermofisher). The plates were incubated at room temperature for 30 min. The assay was stopped by adding 2.5 μL anti-cAMP cryptate solution to all wells and 2.5 μL cAMP-d2 solution (both diluted 1:20 in lysis buffer) to columns 1-22 by Combi drop. A volume of 2.5 μL cAMP-d2 solution was added to wells E23 to P24 and 2.5 μL lysis buffer added to wells A23 to D24 by multichannel pipette. The plates were incubated at room temperature for 1 hr and read on an Envision plate reader using excitation wavelength of 320 nm and emission of 590 nm and 660 nm.
# Raw data from Envision is converted to % DeltaF according to the manufacturer's instructions. Dose response curves are analysed via 4-Parameter Logistical Analysis and assay plate Z′ values obtained. Samples are graphed as percentage (%) activation plots compared to GIP (1-42, Bachem H-5645) with assay window defined by negative control as basal cell cAMP levels and positive control are defined by maximum GIP (82.5 nM) signal. GLP1 (7-36 amide, Bachem H-6795) dose response curve was included on all plates.
# T1 sequence (P43220 24-463 L260F): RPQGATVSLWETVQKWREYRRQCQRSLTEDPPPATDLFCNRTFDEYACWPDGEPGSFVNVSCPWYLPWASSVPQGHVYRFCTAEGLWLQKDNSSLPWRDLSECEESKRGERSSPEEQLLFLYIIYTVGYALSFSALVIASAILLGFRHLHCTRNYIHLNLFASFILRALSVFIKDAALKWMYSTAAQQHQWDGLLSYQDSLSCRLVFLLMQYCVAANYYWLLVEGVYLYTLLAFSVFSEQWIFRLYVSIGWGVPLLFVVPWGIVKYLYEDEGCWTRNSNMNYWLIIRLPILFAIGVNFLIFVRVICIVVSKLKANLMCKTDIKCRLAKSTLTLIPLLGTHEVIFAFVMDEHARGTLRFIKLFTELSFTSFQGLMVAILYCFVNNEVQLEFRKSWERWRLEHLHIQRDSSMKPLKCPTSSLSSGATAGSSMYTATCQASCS
# T2 sequence (P43220 24-463): as the sequence (P43220 24-463 L260F) above, with F237L counted along it
EC50 (human GLP-1R receptor),EC50 [1],SMILES
180 nM,1300 nM,"C[C@]1(c2ccc(Cl)cn2)Oc2cccc(N3CCN(Cc4nc5ccc(C(=O)O)cc5n4C[C@@H]4CCO4)[C@H]4COC[C@H]43)c2O1 (relative stereo) [Example 5a, 2-((4aR*,7aS*)-4-((R*)-2-(5-Chloropyridin-2-yl)-2-methylbenzo[d][1,3]dioxol-4-yl)hexahydrofuro[3,4-b]pyrazin-1(2H)-yl)methyl)-1-(((S)-oxetan-2-yl)methyl)-1H-benzo[d]imidazole-6-carboxylic acid]"
730 nM,340 nM,"C[C@@]1(c2ccc(Cl)cc2F)Oc2cccc(N3CCN(Cc4nc5c(F)cc(C(=O)O)cc5n4Cc4cccnc4)[C@@H]4COC[C@@H]43)c2O1 (relative stereo) [Example 13c, rel-2-(((4aR,7aS)-4-((R)-2-(4-Chloro-2-fluorophenyl)-2-methylbenzo[d][1,3]dioxol-4-yl)hexahydrofuro[3,4-b]pyrazin-1(2H)-yl)methyl)-4-fluoro-1-(pyridin-3-ylmethyl)-1H-benzo[d]imidazole-6-carboxylic acid]"
1.1 nM,1.9 nM,"C[C@@]1(c2ccc(Cl)cc2F)Oc2cccc(N3CCN(Cc4nc5c(Cl)cc(C(=O)O)cc5n4C[C@@H]4CCO4)[C@@H]4COC[C@@H]43)c2O1 (relative stereo) [Example 15a, 4-Chloro-2-(((4aR*,7aS*)-4-((R*)-2-(4-chloro-2-fluorophenyl)-2-methylbenzo[d][1,3]dioxol-4-yl)hexahydrofuro[3,4-b]pyrazin-1(2H)-yl)methyl)-1-(((S)-oxetan-2-yl)methyl)-1H-benzo[d]imidazole-6-carboxylic acid]"
2 nM,1.2 nM,"COc1cc(C(=O)O)cc2c1nc(CN1CCN(c3cccc4c3OC(C)(c3ccc(Cl)cc3F)O4)[C@@H]3COC[C@@H]31)n2C[C@@H]1CCCO1 (relative stereo) [Example 28, 2-(((4aS,7aR)-4-((R*)-2-(4-Chloro-2-fluorophenyl)-2-methylbenzo[d][1,3]dioxol-4-yl)hexahydrofuro[3,4-b]pyrazin-1(2H)-yl)methyl)-4-methoxy-1-(((S)-tetrahydrofuran-2-yl)methyl)-1H-benzo[d]imidazole-6-carboxylic acid]"
140 nM,210 nM,"COc1cc(C(=O)O)cc2c1nc(CN1CCN(c3cccc4c3O[C@@](C)(c3ccc(Cl)cn3)O4)[C@@H]3COC[C@@H]31)n2C[C@@H]1CCO1 (single isomer, unassigned) [Example 1a, 2-(((4aR*,7aS*)-4-((R*)-2-(5-Chloropyridin-2-yl)-2-methylbenzo[d][1,3]dioxol-4-yl)hexahydrofuro[3,4-b]pyrazin-1(2H)-yl)methyl)-4-methoxy-1-(((S)-oxetan-2-yl)methyl)-1H-benzo[d]imidazole-6-carboxylic acid]"
110 nM,86 nM,"COc1cc(C(=O)O)cc2c1nc(CN1CCN(c3cccc4c3O[C@@](C)(c3ccc(Cl)cn3)O4)[C@@H]3COC[C@@H]31)n2C[C@@H]1CCCO1 (single isomer, unassigned) [Example 2b, 2-(((4aR*,7aS*)-4-((R*)-2-(5-Chloropyridin-2-yl)-2-methylbenzo[d][1,3]dioxol-4-yl)hexahydrofuro[3,4-b]pyrazin-1(2H)-yl)methyl)-4-methoxy-1-(((S)-tetrahydrofuran-2-yl)methyl)-1H-benzo[d]imidazole-6-carboxylic acid]"
1.2 nM,1.7 nM,"COc1cc(C(=O)O)cc2c1nc(CN1CCN(c3cccc4c3O[C@@](C)(c3ccc(Cl)cc3F)O4)[C@@H]3COC[C@@H]31)n2C[C@@H]1CCO1 (single isomer, unassigned) [Example 3a, 2-(((4aR*,7aS*)-4-((R*)-2-(4-Chloro-2-fluorophenyl)-2-methylbenzo[d][1,3]dioxol-4-yl)hexahydrofuro[3,4-b]pyrazin-1(2H)-yl)methyl)-4-methoxy-1-(((S)-oxetan-2-yl)methyl)-1H-benzo[d]imidazole-6-carboxylic acid]"
61 nM,270 nM,"COc1cc(C(=O)O)cc2c1nc(CN1CCN(c3cccc4c3O[C@@](C)(c3ccc(Cl)cc3F)O4)[C@@H]3COC[C@@H]31)n2C[C@@H]1CCO1 (single isomer, unassigned) [Example 3b, 2-(((4aR*,7aS*)-4-((R*)-2-(4-Chloro-2-fluorophenyl)-2-methylbenzo[d][1,3]dioxol-4-yl)hexahydrofuro[3,4-b]pyrazin-1(2H)-yl)methyl)-4-methoxy-1-(((S)-oxetan-2-yl)methyl)-1H-benzo[d]imidazole-6-carboxylic acid]"
150 nM,130 nM,"COc1cc(C(=O)O)cc2c1nc(CN1CCN(c3cccc4c3O[C@@](C)(c3ccc(Cl)cc3F)O4)[C@@H]3COC[C@@H]31)n2C[C@@H]1CCO1 (single isomer, unassigned) [Example 3c, 2-(((4aR*,7aS*)-4-((R*)-2-(4-Chloro-2-fluorophenyl)-2-methylbenzo[d][1,3]dioxol-4-yl)hexahydrofuro[3,4-b]pyrazin-1(2H)-yl)methyl)-4-methoxy-1-(((S)-oxetan-2-yl)methyl)-1H-benzo[d]imidazole-6-carboxylic acid]"
380 nM,,"C[C@]1(c2ccc(Cl)cc2F)Oc2cccc(N3CCN(Cc4nc5ccc(C(=O)O)cc5n4CCn4cccn4)[C@H]4COC[C@H]43)c2O1 (single isomer, unassigned) [Example 7b]"
